This assay relates to human Treg cells. The experiment in a line: Functional screening assay: naïve CD4+ T cell proliferation ([3H]thymidine) with Treg cells and small molecule compounds. The conditions noted are these: compound 1 μM; [3H]thymidine incorporation; marked effect = CPM>60K, 50% restoration. Format: cell-based. Here is the method: These small molecule compounds contain a quinolone structure. Those with a marked effect on the proliferation of CD4^+ naïve T cells (CPM>60K, 50% restoration compared to naïve T cells alone) are considered excellent candidates for further drug development. Naïve T cells alone or CD4^+ naïve cells plus Treg cells, without any compound serve as controls. […]
Specifically, a functional screening assay was carried out using soluable anti-CD3 antibody plus antigen-presenting cells (APCs). Naïve CD4^+T cells were purified from PBMCs using microbeads (Miltenvi Biotec). DCs were generated from PBMC-derived monocytes in the presence of IL-4 (500 ng/ml) and GM-CSF (800 ng/ml) for 7 days. 1×10^5 naïve CD4^+ T cells were cultured with regulatory T cells at different ratios of 1:0.2, 1:0.1 and 1:0.05 in 200 μl of medium containing 2×10^4 of DCs and anti-CD3 antibody (100 ng/ml) in the absence or presence of various small molecule compounds (1 μM). □ After 56 hours of culture, [^3H]thymidine was added at a final concentration of 1 μCi/well, followed by an additional 16 h. of culture. The incorporation of [^3H]thymidine was measured with a liquid scintillation counter. All experiments were performed in triplicate. In addition, a screening assay was performed usinge anti-CD3 antibody coated without APCs: 1×10^5 naïve CD4 T cells were cultured with regulatory T cells at different ratios of 1:0.2, 1:0.1 and 1:0.05 in anti-CD3 mAb-coated (2 μg/ml) 96-well plates in the absence or presence of various small molecule compounds (1 μM) □. After 56 h of culture, [^3H]thymidine was added at a final concentration of 1 μCi/well, followed by an additional 16 h of culture. The incorporation of [^3H]thymidine was measured with a liquid scintillation counter.
Background: Dividing cells build labelled thymidine or BrdU into new DNA.

Take `O=C(O)c1c[nH]c2ccccc2c1=O` [#10, 4-oxo-1H-quinoline-3-carboxylic acid]: the “Reversal of the suppressive function of Treg cells (restoration of naïve CD4+ T cell proliferation)” value (shortened to “Reversal”) was “ST020639 #10 No activity”.

As for `CCOC(=O)c1c[nH]c2c(F)c(F)c(F)cc2c1=O` [#18, Ethyl 6,7,8-trifluoro-1,4-dihydro-4-oxo-3-quinilinecarboxylate], the “Reversal” value was “TRE0006666 #18 No activity”.

Turning to `O=C(O)c1coc2ccc(F)cc2c1=O` [#28, 6-Fluoro-4-oxo-4H-chromene-3-carboxylic acid], the “Reversal” value is on record as “TRE0080974 #28 No activity”.

For `CCOC(=O)c1cn(-c2ccc(F)cc2F)c2nc(Cl)c(F)cc2c1=O` [#14, ethyl 7-chloro-1-(2,4-difluorophenyl)-6-fluoro-4-oxo-1,8-naphthyridine-3-carboxylate], the “Reversal” value is given as “ST067113 #14 No activity”.

For the compound `CC1COc2c(F)c(F)cc3c(=O)c(C(=O)O)cn1c23` (stereo not shown) [#20, 9,10-Difluoro-3-methyl-7-oxo-2,3-dihydro-7H-[1,4]oxazino[2,3,4-ij]quinoline-6-carboxylic acid], the “Reversal” value is listed as “TRE0008195 #20 No activity”.

As to `Fc1ccccc1N1CCNCC1` [#15, 1-(2-Fluorophenyl)piperazine], the “Reversal” value was “TRE0004030 #15 No activity”.

With `CCn1cc(C(=O)O)c(=O)c2cc(F)c(NN3C(=O)CSC3c3ccccc3Cl)cc21` (stereo not shown) [#11, {[2-(2-chlorophenyl)-4-oxo(1,3-thiazolidin-3-yl)]amino}-1-ethyl-6-fluoro-4-o xohydroquinoline-3-carboxylic acid], the “Reversal” value is “ST048777 #11 No activity”.

As to `Fc1ccccc1N1CCNCC1` [#17, 1-(2-Fluorophenyl)piperazine], the “Reversal” value was “TRE0005772 #17 No activity”.

As for `Fc1ccc(N2CCNCC2)c(F)c1` [#16, 1-(2,4-Difluorophenyl)piperazine], the “Reversal” value is reported as “TRE0005495 #16 No activity”.

On to `CCCCCn1cc(C(=O)O)c(=O)c2cc(F)c(F)cc21` [#8, 6,7-difluoro-4-oxo-1-pentylquinoline-3-carboxylic acid], for which the “Reversal” value is recorded as “ST008097 #8 No activity”.

Regarding `CCOC(=O)c1cn(CC)c2c(F)c(F)c(F)cc2c1=O` [#27, Ethyl 1-ethyl-6,7,8-trifluoro-1,4-dihydro-4-oxo-3-quinolinecarboxylate], the “Reversal” value is listed as “TRE0080754 #27 No activity”.

Consider `CCn1cc(C(=O)O)c(=O)c2cc(F)c(NN3C(=O)/C(=C\c4ccccc4)N=C3c3ccccc3)cc21` [#9, F[…] 5- MALEIMIDE], for which the “Reversal” value is recorded as “ST023837 #9 No activity”.

With `CCn1cc(C(=O)O)c(=O)c2cc(F)c(Cl)cc21` [#19, 7-Chloro-1-ethyl-6-fluoro-4-oxo-1,4-dihydro-3-quinolinecarboxylic acid], the “Reversal” value is “TRE0007211 #19 No activity”.

In the case of `CC1CCc2cc(F)cc3c(=O)c(C(=O)O)cn1c23` (stereo not shown) [#21, 9-Fluoro-5-methyl-1-oxo-6,7-dihydro-1H,5H-pyrido[3,2,1-ij]quinoline-2-carboxylic acid, reference compound], the “Reversal” value is on record as “TRE0065224 #21 No activity”.

Take `CCn1cc(C(=O)O)c(=O)c2cc(F)c(NN3C(=O)C(Cl)C3c3ccc(OC)cc3)cc21` (stereo not shown) [#12, 7-{[3-Chloro-2-(4-methoxyphenyl)-4-oxo-1-azetidinyl]amino}-1-ethyl-6-fluoro-4-oxo-1,4-dihydro-3-quinolinecarboxylic acid]: the “Reversal” value was “ST026709 #12 No activity”.

Regarding `CCN1CCN(c2cc3c(cc2F)c(=O)c(C(=O)O)cn3C2CC2)CC1` [#26, 1-Cyclopropyl-7-(4-ethyl-1-piperazinyl)-6-fluoro-4-oxo-1,4-dihydro-3-quinolinecarboxylic acid, reference compound], the “Reversal” value is listed as “TRE0076990 #26 No activity”.

The record behind these values is US20160030443A1, “METHODS AND COMPOSITIONS FOR MODULATING REGULATORY T CELL FUNCTION” (priority 2013, published 2016).
